Laboratory results reported in patent US10254285B2, “Methods for detecting and treating cancer metastasis” (Cedars-Sinai Medical Center, priority 2013, dated 2019).

Legend:
WPMY-1 cells = test: Uptake of PKH26-labeled large oncosomes (LO) by recipient cells, FACS / fluorescent imaging; assay type: cell-based, human; details: WPMY-1 cells treated with PKH26-labeled LO for 1 h at 37° C. in presence of the compound
Procedure: As shown in FIG. 23 LO internalization differs between cells. LO isolation was performed using a filtration approach where the larger vesicles are retained by the filter and the smaller ones flow through. To test LO uptake, LO were labeled with a lipophilic dye, PKH26 and then used to treat target cells for 1 h at 37° C. LO uptake levels have been measured as the acquisition of fluorescence by target cells either by FACS or confocal imaging.
LO isolation was preformed using a filtration approach where the larger vesicles are retained by the filter and the smaller ones flow through. To test LO uptake LO were labeled with a lipophilic dye, PKH26 and then used to treat target cells for 1 h at 37° C. or 4° C. in presence or absence of the indicated compounds. LO uptake levels were measured as the acquisition of fluorescence by target cells either by FACS and fluorescent imaging. Dynamin2 silencing has been performed by transient transfection of WPMY-1 cells with an oligos against Dynamin2.

HUVEC = test: Tube formation assay in endothelial cells; assay type: cell-based; details: HUVECs treated with LO (20 μg/ml) in presence of Dyn
Procedure: (§1) LO and Exo isolation was performed by differential high-speed centrifugation (10,000×g and 100,000×g) followed by discontinuous density gradient centrifugation. Conditioned media from LNCaPMyrAkt1 was used as source for LO and Exo. Tube formation assay in endothelial cells, HUVEC treated with LO or Exo 20 μg/ml directly or with conditioned media from NAF previously exposed to either LO or Exo. After 6 h-8 h tube formation rate is recorded by imaging, and quantified by counting the branching points in randomly chosen fields from each condition.
as §1, with “Exo. Luciferase reporter assay for c-Myc promoter activation was performed in NAF transfected with c-Myc promoter or vector plasmid treated with either LO or Exo 20 μg/ml for 6 h in presence or absence of Dynasore 20 nM.” for “Exo.”, “directly in presence” for “directly”, “absence of Dynasore 20 nM.” for “with conditioned media from NAF previously exposed to either LO or Exo.”, “After for” for “After”

c-Myc = test: Luciferase reporter assay for c-Myc promoter activation in NAF; assay type: cell-based; details: NAF exposed to LO (20 μg/ml) in presence of Dyn (20 μM)
Procedure: LO and Exo isolation was performed by differential high-speed centrifugation (10,000×g and 100,000×g) followed discontinuous density gradient centrifugation. Conditioned media from LNCaPMyrAkt1 was used as source for LO and Exo. Nuclear extract from WPMY-1 cells treated with LO for the indicated time was used to perform the transcription factor activation profiling array from Signosis. Luciferase reporter assay for c-Myc promoter activation has been performed in NAF transfected with c-Myc promoter or vector plasmid treated with either LO or Exo 20 μg/ml for 6 h. RT-qPCR for c-Myc target cells in NAF treated with either LO or Exo 20 μg/ml for 6 h or 24 h.
as §1, with “Tube formation assay in endothelial cells, HUVEC treated with LO or Exo 20 μg/ml directly or with conditioned media from NAF previously exposed to either LO or Exo.” left out, “After for” for “After”

Row | Structure (SMILES) | LO uptake (internalization, mean fluorescent intensity) (WPMY-1 cells) | tube formation (HUVEC) | c-Myc activation induced by LO (luciferase reporter) (c-Myc) | LO uptake (internalization, mean fluorescent intensity) (WPMY-1 cells; listed as Dyn)
1 | C=C1[C@@H](C)[C@H]2[C@H](Cc3ccccc3)NC(=O)[C@]23[C@H](OC(C)=O)/C=C/[C@@](C)(O)C(=O)[C@@H](C)C/C=C/[C@H]3[C@@H]1O [cytochalasin D] | partially reduced | – | – | –
2 | O=C(N/N=C/c1ccc(O)c(O)c1)c1cc2ccccc2cc1O [dynasore] | significantly reduced | significantly inhibited | reverted | inhibited
